Values after ≈ are worked out from the molar mass of the structure shown.
Experiments:
Test in all cases: ≥ marks a high value that may be exact or a test limit, other limits are often not marked, values filed in µg/mL are converted to µM
[1] = test system: Pseudomonas aeruginosa PAO1
[2] = test system: Corynebacterium pseudotuberculosis ATCC 19410
[3] = test system: Mannheimia haemolytica Serovar 1
Pasteurella multocida = test system: Pasteurella multocida
[4] = test system: Mannheimia haemolytica Serovar 2
Klebsiella pneumoniae = test system: Klebsiella pneumoniae
Aspergillus fumigatus = test system: Aspergillus fumigatus
Bibersteinia trehalosi = test system: Bibersteinia trehalosi
[5] = test system: Salmonella enterica subsp. arizonae
Staphylococcus aureus = test system: Staphylococcus aureus
[6] = test system: Mannheimia haemolytica Serovar 6
Escherichia coli K91BK = test system: Escherichia coli K91BK
[7] = test system: Bacillus subtilis var. niger ATCC 9372
[8] = test system: Bacillus anthracis Sterne 34F2
[9] = test system: Escherichia coli ATCC 25922
[10] = test system: Bacillus subtilis ATCC 6633
[11] = test system: Staphylococcus aureus FDA 209P
Escherichia coli O111 = test system: Escherichia coli O111
[12] = test system: Staphylococcus aureus ATCC 29213
[13] = test system: Salmonella enterica subsp. enterica serovar Enteritidis
[14] = test system: Staphylococcus aureus ATCC 43300
Yersinia enterocolitica = test system: Yersinia enterocolitica
Escherichia coli = test system: Escherichia coli
Salmonella sp. = test system: Salmonella sp.
[15] = test system: Streptococcus mutans UA159
[16] = test system: Streptococcus mitis ATCC 903
Enterococcus faecalis = test system: Enterococcus faecalis
[17] = test system: Streptococcus gordonii Challis DL1
Escherichia coli W3110 = test system: Escherichia coli W3110
[18] = test system: Streptococcus sobrinus ATCC 33478
[19] = test system: Streptococcus sanguinis NY101
[20] = test system: Pseudomonas aeruginosa PAK

`CC[C@H](C)[C@H](NC(=O)[C@@H](NC(=O)[C@H](Cc1cnc[nH]1)NC(=O)[C@@H](NC(=O)[C@@H](NC(=O)[C@H](CCCCN)NC(=O)[C@H](CCCN=C(N)N)NC(=O)[C@@H](NC(=O)[C@@H](NC(=O)[C@@H](N)CCCN=C(N)N)[C@@H](C)CC)[C@@H](C)CC)[C@@H](C)CC)[C@@H](C)CC)[C@@H](C)CC)C(N)=O` [RIIRKIIHII] was tested, and the MIC [1] was 7.85 µM (≈ 9.99 µg/mL), the MIC [2] was 15.7 µM (≈ 20 µg/mL) and the MIC [3] was 15.7 µM (≈ 20 µg/mL). It also gave an MIC (Pasteurella multocida) of 15.7 µM (≈ 20 µg/mL), an MIC [4] of 10.4 µM (≈ 13.3 µg/mL) and an MIC (Klebsiella pneumoniae) of 9.18 µM (≈ 11.7 µg/mL). For the same compound, the MIC (Aspergillus fumigatus) was 31.4 µM (≈ 40 µg/mL), the MIC (Bibersteinia trehalosi) was 15.7 µM (≈ 20 µg/mL) and the MIC [5] was 15.7 µM (≈ 20 µg/mL). The MIC (Staphylococcus aureus) was greater than 15.7 µM and the MIC [6] was 15.7 µM (≈ 20 µg/mL).

Compound `CC(=O)N[C@@H](CCCCN)C(=O)N[C@@H](CCCCN)C(=O)N[C@@H](Cc1c[nH]c2ccccc12)C(=O)N[C@@H](CCCCN)C(=O)N[C@@H](CCCCN)C(=O)N[C@@H](Cc1c[nH]c2ccccc12)C(=O)N[C@@H](CCCCN)C(=O)N[C@@H](CCCCN)C(=O)N[C@@H](Cc1c[nH]c2ccccc12)C(=O)N[C@@H](CCCCN)C(=O)N[C@@H](CCCCN)C(N)=O` [KKWKKWKKWKK] has an MIC (Escherichia coli K91BK) of no less than 100 µM, an MIC [7] of no less than 50 µM and an MIC [8] of no less than 100 µM.

For `CC[C@H](C)[C@H](NC(=O)CNC(=O)[C@H](CCC(=O)O)NC(=O)[C@H](Cc1c[nH]c2ccccc12)NC(=O)[C@@H](NC(=O)[C@@H](N)CO)[C@@H](C)CC)C(=O)N[C@@H](CCCCN)C(=O)N[C@@H](CC(N)=O)C(=O)N[C@@H](C)C(=O)NCC(=O)N[C@@H](CCCCN)C(=O)NCC(=O)N[C@@H](Cc1ccccc1)C(=O)N[C@@H](CC(C)C)C(=O)N[C@H](C(=O)N[C@@H](CO)C(=O)N[C@H](C(=O)N[C@@H](CC(C)C)C(=O)N[C@@H](CC(=O)O)C(=O)N[C@@H](CCCCN)C(=O)N[C@H](C(=O)N[C@@H](CCCN=C(N)N)C(=O)N[C@H]1CSSC[C@@H](C(=O)N[C@@H](CC(N)=O)C(=O)N2CCC[C@H]2C(=O)O)NC(=O)CNC(=O)CNC(=O)[C@H](C)NC(=O)[C@H](C(C)C)NC(=O)[C@H](CCCCN)NC1=O)C(C)C)[C@@H](C)CC)C(C)C` [SIWEGIKNAGKGFLVSILDKVRCKVAGGCNP], the MIC [9] was 3.01 µM (≈ 9.79 µg/mL), the MIC [10] was 19.6 µM (≈ 64 µg/mL) and the MIC [11] was 3.01 µM (≈ 9.79 µg/mL). For the same compound, the MIC (Escherichia coli O111) was 6.01 µM (≈ 19.6 µg/mL).

For `CC[C@H](C)[C@H](NC(=O)CN)C(=O)N[C@@H](Cc1ccccc1)C(=O)N[C@H](C(=O)N[C@@H](CC(C)C)C(=O)N[C@@H](Cc1ccccc1)C(=O)N[C@@H](CCCCN)C(=O)NCC(=O)N[C@@H](C)C(=O)N[C@@H](C)C(=O)N[C@@H](CCCCN)C(=O)N[C@@H](CC(C)C)C(=O)N[C@@H](CC(C)C)C(=O)NCC(=O)N[C@@H](CCCCN)C(=O)N[C@H](C(=O)N[C@@H](CC(C)C)C(=O)N[C@@H](C)C(=O)N[C@@H](CCCCN)C(=O)N[C@@H](CCC(=O)O)C(=O)N[C@@H](C)C(=O)NCC(=O)N[C@@H](CCCCN)C(=O)N[C@H](C(=O)NCC(=O)N[C@@H](CC(C)C)C(=O)N[C@@H](CCC(=O)O)C(=O)N[C@@H](CC(C)C)C(=O)N[C@@H](CCSC)C(=O)N[C@@H](C)C(=O)N[C@H]1CSSC[C@@H](C(=O)O)NC(=O)[C@H](CCC(N)=O)NC(=O)[C@H](CC(N)=O)NC(=O)[C@H]([C@@H](C)O)NC(=O)[C@H](C(C)C)NC(=O)[C@H](CCCCN)NC1=O)[C@@H](C)O)[C@@H](C)O)[C@@H](C)O` [GIFTLFKGAAKLLGKTLAKEAGKTGLELMACKVTNQC], the MIC [9] was 2.8 µM (≈ 10.8 µg/mL) and the MIC [11] was 4.4 µM (≈ 17 µg/mL).

`CC[C@H](C)[C@H](NC(=O)[C@H](CCCCN)NC(=O)[C@@H]1CCCN1C(=O)[C@H](CCC(N)=O)NC(=O)[C@@H](N)CCCN=C(N)N)C(=O)N1CCC[C@H]1C(=O)N[C@@H](CCCN=C(N)N)C(=O)N[C@@H](CCSC)C(=O)N1CCC[C@H]1C(=O)N[C@@H](Cc1c[nH]c2ccccc12)C(=O)N[C@@H](CCCN=C(N)N)C(N)=O` [RQPKIPRMPWR] gave an MIC [12] greater than 34.1 µM, an MIC [13] of no less than 34.1 µM and an MIC [14] greater than 34.1 µM. The MIC (Yersinia enterocolitica) was no less than 34.1 µM, the MIC [9] was greater than 34.1 µM and the MIC (Escherichia coli) was greater than 34.1 µM. For the same compound, the MIC (Salmonella sp.) was no less than 34.1 µM.

Work on `NC(=O)CC[C@H](NC(=O)[C@H](Cc1c[nH]c2ccccc12)NC(=O)[C@H](Cc1c[nH]c2ccccc12)NC(=O)[C@H](CC(N)=O)NC(=O)[C@H](Cc1ccc(O)cc1)NC(=O)[C@H](Cc1c[nH]c2ccccc12)NC(=O)[C@@H](N)Cc1c[nH]c2ccccc12)C(=O)N[C@@H](CC(=O)O)C(=O)N[C@@H](Cc1c[nH]c2ccccc12)C(N)=O` [WWYNWWQDW] yielded an MIC [15] of no less than 340 µM, an MIC [16] of no less than 340 µM and an MIC (Enterococcus faecalis) of no less than 340 µM. It also gave an MIC [17] of no less than 340 µM, an MIC (Escherichia coli W3110) of no less than 340 µM and an MIC [18] of no less than 340 µM. The MIC [19] was no less than 340 µM, the MIC (Staphylococcus aureus) was greater than 340 µM and the MIC [20] was no less than 340 µM.

Work on `CC[C@H](C)[C@H](NC(=O)[C@H](CC(N)=O)NC(=O)[C@H](CCCCN)NC(C)=O)C(=O)N[C@@H](CCCN=C(N)N)C(=O)N[C@@H](CCCN=C(N)N)C(=O)N[C@H](C(=O)N[C@H](C(=O)N[C@@H](CCCN=C(N)N)C(=O)N[C@@H](CCCCN)C(=O)N[C@H](C(=O)N[C@H](C(=O)N[C@@H](Cc1cnc[nH]1)C(=O)N[C@H](C(=O)N[C@H](C(=O)N[C@@H](CCCCN)C(=O)N[C@@H](CCCCN)C(=O)N[C@@H](Cc1ccc(O)cc1)C(=O)NCC(N)=O)[C@@H](C)CC)[C@@H](C)CC)[C@@H](C)CC)[C@@H](C)CC)[C@@H](C)CC)[C@@H](C)CC` [KNIRRIIRKIIHIIKKYG] yielded an MIC (Escherichia coli K91BK) of no less than 100 µM, an MIC [7] of 0.93 µM (≈ 2.14 µg/mL) and an MIC [8] of 6.25 µM (≈ 14.4 µg/mL).

Compound `CC[C@H](C)[C@H](NC(=O)[C@H](Cc1ccccc1)NC(=O)[C@H](Cc1cnc[nH]1)NC(=O)[C@H](CCCCN)NC(=O)[C@@H](NC(=O)[C@@H](N)Cc1ccccc1)[C@@H](C)CC)C(=O)N[C@@H](Cc1cnc[nH]1)C(=O)N[C@@H](CCCN=C(N)N)C(=O)N[C@@H](Cc1ccccc1)C(N)=O` [FIKHFIHRF] has an MIC [15] of no less than 100 µM, an MIC [16] of no less than 402 µM and an MIC (Enterococcus faecalis) of no less than 402 µM. The MIC [17] was no less than 402 µM, the MIC (Escherichia coli W3110) was no less than 402 µM and the MIC [18] was no less than 100 µM. It also gave an MIC [19] of no less than 100 µM, an MIC (Staphylococcus aureus) greater than 402 µM and an MIC [20] of no less than 402 µM.

`CC[C@H](C)[C@H](NC(=O)[C@H](CCC(N)=O)NC(=O)[C@@H](N)CCCN=C(N)N)C(=O)N[C@H](C(=O)N[C@@H](CCCN=C(N)N)C(=O)N[C@@H](CCCN=C(N)N)C(=O)N[C@@H](CCSC)C(=O)N[C@@H](CCC(N)=O)C(=O)N[C@@H](CCCN=C(N)N)C(N)=O)[C@@H](C)CC` [RQIIRRMQR] showed an MIC [12] greater than 39.8 µM, an MIC [13] of no less than 39.8 µM and an MIC [14] greater than 39.8 µM. The MIC (Yersinia enterocolitica) was no less than 39.8 µM, the MIC [9] was greater than 39.8 µM and the MIC (Escherichia coli) was greater than 39.8 µM. It also gave an MIC (Salmonella sp.) of no less than 39.8 µM.

`CC[C@H](C)[C@H](NC(=O)[C@H](Cc1cnc[nH]1)NC(=O)[C@@H](NC(=O)[C@@H](NC(=O)[C@H](CCCCN)NC(=O)[C@H](CCCN=C(N)N)NC(=O)[C@@H](NC(=O)[C@@H](NC(=O)[C@@H](N)CCCN=C(N)N)[C@@H](C)CC)[C@@H](C)CC)[C@@H](C)CC)[C@@H](C)CC)C(=O)N[C@H](C(=O)N[C@@H](CCCCN)C(N)=O)[C@@H](C)CC` [RIIRKIIHIIK] showed an MIC [1] of 3.56 µM (≈ 5 µg/mL), an MIC [2] of 14.3 µM (≈ 20 µg/mL) and an MIC [3] of 14.3 µM (≈ 20 µg/mL). For the same compound, the MIC (Pasteurella multocida) was 14.3 µM (≈ 20 µg/mL), the MIC [4] was 7.13 µM (≈ 9.99 µg/mL) and the MIC (Klebsiella pneumoniae) was 9.48 µM (≈ 13.3 µg/mL). The MIC (Aspergillus fumigatus) was 28.5 µM (≈ 40 µg/mL), the MIC (Bibersteinia trehalosi) was 14.3 µM (≈ 20 µg/mL) and the MIC [5] was 14.3 µM (≈ 20 µg/mL). It also gave an MIC (Staphylococcus aureus) greater than 14.3 µM and an MIC [6] of 7.13 µM (≈ 9.99 µg/mL).

From DBAASP
